In publication PMC3135573 (Analytical biochemistry, 2011):
Where two headings read alike, the source gives them in different places. Marks after values point to notes of the source that are not given here.

Key:
BioA [1] = target: T1, BioA (Mycobacterium tuberculosis, UniProt P9WQ81); type: biochemical
BioA [2] = target: T1, BioA; conditions: cited from earlier work
BioA [3] = target: T1, BioA; conditions: biodisc assay ref 37; cited from earlier work

T1 sequence (P9WQ81 whole entry, looked up): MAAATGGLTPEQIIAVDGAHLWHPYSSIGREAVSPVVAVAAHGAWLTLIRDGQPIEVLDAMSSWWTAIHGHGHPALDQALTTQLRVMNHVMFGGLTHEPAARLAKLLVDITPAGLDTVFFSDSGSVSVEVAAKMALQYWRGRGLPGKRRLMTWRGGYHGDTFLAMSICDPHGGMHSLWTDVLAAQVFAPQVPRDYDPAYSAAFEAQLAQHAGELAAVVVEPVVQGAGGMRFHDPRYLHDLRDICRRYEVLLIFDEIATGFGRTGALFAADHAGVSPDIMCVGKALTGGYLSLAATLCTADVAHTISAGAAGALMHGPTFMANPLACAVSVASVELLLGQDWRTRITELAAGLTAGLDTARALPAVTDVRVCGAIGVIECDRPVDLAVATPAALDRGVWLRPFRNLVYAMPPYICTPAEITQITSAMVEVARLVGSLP

With `O[C@@H](CS)[C@@H](O)CS` (racemic) [DTT, dithiothreitol] the “decrease of the initial velocity” value (BioA [1]; addition of 2 mM DTT) was 18%.

In the case of `C[C@@H](N)C(=O)CCCCCC(=O)O` [(R)-KAPA], the “inhibition of BioA (in words)” value (BioA [2]) is listed as “potent inhibitor of BioA”.

For `C[C@H](N)C(=O)CCCCCC(=O)O.Cl` [KAPA, (S)-8-Amino-7-oxononanoic acid hydrochloride salt], the KmKAPA (BioA [1]; this study, 50 nM BioA, 5 mM SAM, KAPA 0–12.5 μM) is given as 1.9 ± 0.1 µM and the KmKAPA (BioA [3]) is given as 1.3 ± 0.3 ^a μM.

In the case of `C[S+](CC[C@H](N)C(=O)[O-])C[C@H]1O[C@@H](n2cnc3c(N)ncnc32)[C@H](O)[C@@H]1O` (stereo partly drawn) [SAM, S-adenosyl methionine], the KmSAM (BioA [1]; this study, 50 nM BioA, 12.5 μM KAPA, SAM 0.12–15 mM) is given as 1.17 ± 0.06 mM and the KmSAM (BioA [3]) is given as 1.4 ± 0.3 ^a mM.
